Source: patent US20120028887A1, “L[…] HIV-1” (priority 2009, published 2012)
Residues, ends and D or L forms follow the SMILES beside them. No end group written: not given here. *: point of attachment. Palmitoyl = CCCCCCCCCCCCCCCC(=O)*; C16 = C16 lipid

Tests used:
[1] = system: Jurkat E6-1 cells and Jurkat HXBc2 cells expressing HIV-1 HXBc2 Rev and ENV proteins; format: cell-based; conditions: for IC50: read-out: IC50 in cell-cell fusion inhibition assay; for IC50 (nM) In cell-cell fusion assay: Table 4
Procedure: Jurkat E6-1 cells were from Dr. Arthur Weiss (Weiss A et al. 1984, J. Immunol. 133; 123-8), and Jurkat HXBc2 (4) cells expressing HIV-1 HXBc2 Rev and ENV proteins were from Dr. Joseph Sodroski (Cao, J. et al. 1996, J. Virol. 70; 1340-54). Cells were cultured every 3 to 4 days, and maintained in RPMI-1640 supplemented with the appropriate antibiotics at 37° C. with 5% CO2 in a humidified incubator. For ENV expression, Jurkat HXBc2 (4) cells were transferred to medium without tetracycline three days prior to the experiments. […] Cell-Cell Fusion Inhibition Assay—The protocol utilizing Jurkat E6-1 and Jurkat HXBc2 cells for a cell-cell fusion assay was previously described (Huerta L. et al. 2002, Cytometry, 47; 100-6. In short, Jurkat E6-1 and Jurkat HXBc2 cells were labeled with DiI and DiD lypophilic fluorescent probes, respectively. The two cell populations were co-incubated for 6 h in a ratio of 1:1 in the presence of different concentrations of the inhibitory peptides. Cells that co-incubated without the presence of peptides served as an optimal fusion reference. Unlabeled cells that were handled similarly served as an intrinsic fluorescence control. Cells labeled separately with DiI or DiD were used to compensate for the optimal separation of fluorescent signals. Jurkat HXBc2 cells labeled with DiI were co-incubated with Jurkat HXBc2 cells labeled with DiD for a fusion background that was subtracted from the measurements of the experiment. The following alterations were applied to the original protocol: (i) 5 ul of a 1 mg/ml DiI or DiD solution in dimethylsulfoxide (DMSO) was added to 1 ml of 5×10^6 cells/ml Jurkat E6-1 or Jurkat HXBc2 cells, respectively. (ii) Data from 150,000 events for each sample were collected on FACSort, upgraded to a FACSCalibur cell analyzer (Becton Dickinson), and further analyzed. Fitting of the data points was performed according to the equation derived from Hills' equation:

HIV-1 HXB2 = format: cell-based; conditions: Table 5
Procedure: For the fitting, we uploaded the X and Y values of the raw data (after subtracting the background) into a nonlinear least squares regression (curve fitter) program that provided the IC50 value (A of the equation), as well as the c value. Virus Infectivity Assay—Fully infectious HIV-1 HXB2 concentrated virus stock was a kind gift of the AIDS Vaccine Program, SAIC. Experiments were done according to a P3 biological safety level. The infectivity of HIV-1 HXB2 was determined using the TZM-bl cell line as a reporter. Cells were added (2×10^4 cells/well) to a 96-well clear-bottomed microtiter plate with 10% serum supplemented Dulbecco's modified eagle medium (DMEM). Plates were incubated at 37° C. for 18-24 hours to allow the cells to adhere. The media was then aspirated from each well and replaced with serum free DMEM containing 40 micrograms/mL DEAE-dextran. […] Luciferase activity was analyzed using the Steady-Glo Luciferase assay kit (Promega, Madison Wis.). […] IC50 Values were calculated from the fitted curve similarly to the cell-cell fusion assay. […] The eight different possible combinations (triple, NBD, DiI, DiD, NBD+DiI, NBD+DiD, DiI+DiD, no label) were defined in the analysis software and the percentage of each one was calculated. The percentage of NBD labeling (peptide) on all cell types in relation to all available labeled cells in the system was calculated. […]

HIV-1LAI = conditions: blocked infection of target cells; cited from earlier work

CC[C@H](C)[C@H](NC(=O)CNC(=O)[C@@H](N)CO)C(=O)N[C@@H](CC(=O)O)C(=O)N[C@@H](CCC(N)=O)C(=O)N[C@@H](CCC(=O)O)C(=O)N[C@@H](CCC(N)=O)C(=O)N[C@@H](CC(N)=O)C(=O)N[C@@H](CC(N)=O)C(=O)N[C@@H](CC(C)C)C(=O)N[C@H](C(=O)N[C@@H](CCCNC(=N)N)C(=O)N[C@@H](CC(C)C)C(=O)N[C@H](C(=O)N[C@@H](CCC(=O)O)C(=O)N[C@@H](C)C(=O)N[C@@H](CCC(N)=O)C(=O)N[C@H](C(=O)N[C@@H](Cc1c[nH]cn1)C(=O)N[C@@H](CCC(=O)O)C(=O)N[C@@H](CC(C)C)C(=O)N[C@@H](CCC(N)=O)C(=O)N[C@@H](CC(C)C)C(=O)N[C@H](C(=O)N[C@@H](CCC(N)=O)C(=O)N[C@@H](Cc1c[nH]c2ccccc12)C(=O)N[C@@H](CCCCN)C(=O)N[C@H](C(=O)N[C@@H](CCCCN)C(=O)N[C@@H](CCC(N)=O)C(=O)N[C@@H](CC(C)C)C(=O)N[C@@H](CC(C)C)C(=O)N[C@@H](C)C(=O)N[C@@H](CCCNC(=N)N)C(=O)N[C@H](C(=O)N[C@@H](CC(C)C)C(=O)N[C@@H](CCCCN)C(N)=O)[C@@H](C)CC)[C@@H](C)CC)[C@@H](C)O)[C@@H](C)CC)[C@@H](C)CC)[C@@H](C)O [N36 MUTe,g, reference compound] (H-SGIDQEQNNLTRLIEAQIHELQLTQWKIKQLLARILK-NH2; N-terminus assumed)
IC50 [1]: 0.936 ± 0.036 µM

SGIVQQLNNQLRAEEANQHLEQLSVWGSKQNQARRLK(δ-NH) [N36 MUTa,d, reference compound]
IC50 in cell-cell fusion inhibition assay [1]: inactive
IC50 nM ([1]; cell-cell fusion assay, Table 3, N36 mutated peptides): Not active

CCCCCCCCCCCCCCCC(=O)NCCCC[C@H](NC(=O)[C@H](CC(C)C)NC(=O)[C@@H](NC(=O)[C@H](CCCNC(=N)N)NC(=O)[C@H](C)NC(=O)[C@H](CC(C)C)NC(=O)[C@H](CC(C)C)NC(=O)[C@H](CCC(N)=O)NC(=O)[C@H](CCCCN)NC(=O)[C@@H](NC(=O)[C@H](CCCCN)NC(=O)[C@H](Cc1c[nH]c2ccccc12)NC(=O)[C@H](CCC(N)=O)NC(=O)[C@@H](NC(=O)[C@H](CC(C)C)NC(=O)[C@H](CCC(N)=O)NC(=O)[C@H](CC(C)C)NC(=O)[C@H](CCC(=O)O)NC(=O)[C@H](Cc1c[nH]cn1)NC(=O)[C@@H](NC(=O)[C@H](CCC(N)=O)NC(=O)[C@H](C)NC(=O)[C@H](CCC(=O)O)NC(=O)[C@@H](NC(=O)[C@H](CC(C)C)NC(=O)[C@H](CCCNC(=N)N)NC(=O)[C@@H](NC(=O)[C@H](CC(C)C)NC(=O)[C@H](CC(N)=O)NC(=O)[C@H](CC(N)=O)NC(=O)[C@H](CCC(N)=O)NC(=O)[C@H](CCC(=O)O)NC(=O)[C@H](CCC(N)=O)NC(=O)[C@H](CC(=O)O)NC(=O)[C@@H](NC(=O)CNC(=O)[C@@H](N)CO)[C@@H](C)CC)[C@@H](C)O)[C@@H](C)CC)[C@@H](C)CC)[C@@H](C)O)[C@@H](C)CC)[C@@H](C)CC)C(N)=O [N36 MUTe,g-C16] (H-SGIDQEQNNLTRLIEAQIHELQLTQWKIKQLLARILK(Palmitoyl)-NH2)
IC50 [1]: 0.0088 ± 0.004 µM

RQLLSGIDQEQNNLTRLIEAQIHELQ [Sh-RQLL-Mut e,g]
IC50 (nM) In cell-cell fusion assay [1]: Not active

CCCCCCCCCCCCCCCC(=O)N[C@@H](CO)C(=O)NCC(=O)N[C@H](C(=O)N[C@@H](CC(=O)O)C(=O)N[C@@H](CCC(N)=O)C(=O)N[C@@H](CCC(=O)O)C(=O)N[C@@H](CCC(N)=O)C(=O)N[C@@H](CC(N)=O)C(=O)N[C@@H](CC(N)=O)C(=O)N[C@@H](CC(C)C)C(=O)N[C@H](C(=O)N[C@@H](CCCNC(=N)N)C(=O)N[C@@H](CC(C)C)C(=O)N[C@H](C(=O)N[C@@H](CCC(=O)O)C(=O)N[C@@H](C)C(=O)N[C@@H](CCC(N)=O)C(=O)N[C@H](C(=O)N[C@@H](Cc1c[nH]cn1)C(=O)N[C@@H](CCC(=O)O)C(=O)N[C@@H](CC(C)C)C(=O)N[C@@H](CCC(N)=O)C(=O)N[C@@H](CC(C)C)C(=O)N[C@H](C(=O)N[C@@H](CCC(N)=O)C(=O)N[C@@H](Cc1c[nH]c2ccccc12)C(=O)N[C@@H](CCCCN)C(=O)N[C@H](C(=O)N[C@@H](CCCCN)C(=O)N[C@@H](CCC(N)=O)C(=O)N[C@@H](CC(C)C)C(=O)N[C@@H](CC(C)C)C(=O)N[C@@H](C)C(=O)N[C@@H](CCCNC(=N)N)C(=O)N[C@H](C(=O)N[C@@H](CC(C)C)C(=O)N[C@@H](CCCCN)C(N)=O)[C@@H](C)CC)[C@@H](C)CC)[C@@H](C)O)[C@@H](C)CC)[C@@H](C)CC)[C@@H](C)O)[C@@H](C)CC [C16-N36 MUTe,g] (Palmitoyl-SGIDQEQNNLTRLIEAQIHELQLTQWKIKQLLARILK-NH2)
IC50 [1]: 0.162 ± 0.004 µM

CCCCCCCCCCCCCCCC(=O)NCCCC[C@H](NC(=O)[C@H](CCC(N)=O)NC(=O)[C@H](CC(C)C)NC(=O)[C@H](CCC(=O)O)NC(=O)[C@H](Cc1c[nH]cn1)NC(=O)[C@@H](NC(=O)[C@H](CCC(N)=O)NC(=O)[C@H](C)NC(=O)[C@H](CCC(=O)O)NC(=O)[C@@H](NC(=O)[C@H](CC(C)C)NC(=O)[C@H](CCCNC(=N)N)NC(=O)[C@@H](NC(=O)[C@H](CC(C)C)NC(=O)[C@H](CC(N)=O)NC(=O)[C@H](CC(N)=O)NC(=O)[C@H](CCC(N)=O)NC(=O)[C@H](CCC(=O)O)NC(=O)[C@H](CCC(N)=O)NC(=O)[C@H](CC(=O)O)NC(=O)[C@@H](NC(=O)CNC(=O)[C@H](CO)NC(=O)[C@H](CC(C)C)NC(=O)[C@H](CC(C)C)NC(=O)[C@H](CCC(N)=O)NC(=O)[C@@H](N)CCCNC(=N)N)[C@@H](C)CC)[C@@H](C)O)[C@@H](C)CC)[C@@H](C)CC)C(N)=O [Sh-RQLL-Mut e,g-C16] (H-RQLLSGIDQEQNNLTRLIEAQIHELQK(Palmitoyl)-NH2; N-terminus assumed)
IC50 (nM) In cell-cell fusion assay [1]: Not active

C16-HQTLSGIDQEQNNLTRLIEAQIHELQ (C16-HQTLSGIDQEQNNLTRLIEAQIHELQ-NH2) [C16-Sh-Mut e,g]
IC50 (nM) In cell-cell fusion assay [1]: Not active
IC50 (HIV-1 HXB2; read-out: IC50 (nM) In virus-cell fusion assay): 643 ± 137 nM

HQTLSGIDQEQNNLTRLIEAQIHELQ-C16 [Sh-Mut e,g-C16]
IC50 (nM) In cell-cell fusion assay [1]: Not active

HQTLSGIDQEQNNLTRLIEAQIHELQ [Sh-Mut e,g]
IC50 (nM) In cell-cell fusion assay [1]: Not active
IC50 (nM) In virus-cell fusion assay (HIV-1 HXB2): Not active

enfuvirtide
EC50 against HIV-1LAI (HIV-1LAI): 0.5 ng/mL

C16-RQLLSGIDQEQNNLTRLIEAQIHELQ (C16-RQLLSGIDQEQNNLTRLIEAQIHELQ-NH2) [C16-Sh-RQLL-Mut e,g]
IC50 (nM) In cell-cell fusion assay [1]: Not active
